Experimental data from patent US20250195549A1, “NEW USE” (Kancera AB, priority 2023, published 2025).

Tests used:
[1] = test system: ST-elevation myocardial infarction (STEMI) patients undergoing percutaneous coronary intervention; test: FRACTAL phase IIa clinical study: left ventricular thrombus and intramyocardial haemorrhage by CMR and/or echocardiogram on day 3; assay type: in vivo, human; details: treatment group vs placebo, day 3 of the treatment
Source text: (§1) The FRACTAL (FRACTalkine inhibition in Acute myocardial infarction) study was designed as a phase Iia, randomised, two-arm parallel-group, placebo-controlled, double-blind, multi-centre trial. The trial was primarily intended to assess the safety tolerability of intravenous and oral administration of (2R)-2-[(2-amino-5-{[(1S)-1-phenylethyl]thio}[1,3]thiazolo[4,5-d]pyrimidin-7-yl)amino]-4-methylpentan-1-ol (KAND567) (hydrochloride salt) (′investigational medicinal product (IMP)′; structure below)
in ST-elevation myocardial infarction (STEMI) patients undergoing percutaneous coronary intervention. For this, a cohort of 71 STEMI patients were admitted into two large tertiary centres in the United Kingdom. Secondary endpoints included investigating the anti-inflammatory and cardioprotective effects of the treatment. […]
(§2) The primary outcome of the study was safety, but a number of key secondary outcomes being assessed in parallel. Blood samples at nine different time points were used to assess any changes in the immune compartment as well as in inflammatory markers, and the cardioprotective effects of KAND567, as measured by gadolinium-contrast Cardiac Magnetic Resonance (CMR) (Cardiac MRI), were assessed as an additional secondary end point. […]

[2] = test system: ST-elevation myocardial infarction (STEMI) patients undergoing percutaneous coronary intervention; test: FRACTAL clinical study: infarct size by late gadolinium-enhanced (LGE) MRI at day 90; assay type: in vivo, human; details: for Infarct size, GAD5-SD(%): LGE MRI at day 90, average, N in brackets
Method: Every patient received a baseline CMR scan on day 3 post myocardial infarction, followed by a subsequent scan after 3 months. Image analysis was performed by a
Additionally, the size of the myocardial infarction was assessed using late gadolinium-enhanced (LGE) magnetic resonance imaging (MRI) at day 90 to compare infarct size in patients administered the placebo or the IMP, using a thresholding of 5 standard deviations above the mean signal intensity from normal myocardium.
The average infarct size for patients with and without intramyocardial haemorrhage in the placebo and treatment groups is shown in the table below.

[3] = test system: ST-elevation myocardial infarction (STEMI) patients undergoing percutaneous coronary intervention; test: FRACTAL clinical study: safety, tolerability and bleeding; assay type: in vivo, human
Source text: as §1
Following angiography and final confirmation of eligibility, patients were randomised to receive the intravenous (IV) bolus of either investigational medicinal product (IMP) or placebo. To avoid delivery of the IMP after reperfusion of the occluded vessel, percutaneous coronary intervention (PCI) was only commenced following the intravenous bolus of IMP/placebo. Patients then completed the remainder of their IMP infusion over 6 h. […]
as §2

[4] = FRACTAL clinical study: steady state concentration during IV infusion; assay type: in vivo, human; details: IV infusion over 6 hours, total dose 134 mg; in the blood
Method: The IMP and placebo (IMP 7.5 mg/mL solution (comprising 7.5 mg/mL IMP, Kleptose HP, sodium chloride and disodium phosphate in water for injection) added to 250 mL sodium chloride 0.9%, placebo solution as IMP solution but without active ingredient) were administered intravenously over a 6 hour period, at the rate summarised in the table below.
• Infusion of the initial bolus dose (approximately 10 mg of the active ingredient) was commenced at least 2 minutes before initiation of PCI. • Reperfusion of the occluded vessel was then initiated by advancing a coronary wire past the occluded or partially occluded site, followed by either balloon angioplasty, thrombectomy or stenting, according to routine clinical care. • IV infusion was then continued over 6 hours with an estimated steady state concentration of 1.5 µM (the rate of infusion was adjusted 3 hours after the start of the bolus dose, to achieve a steady concentration in the blood). The same IV solution was used throughout to give a total dose of 134 mg of the active ingredient over the 6-hour infusion time; placebo solution as IMP solution but without active ingredient). • If required, a bridging peroral dose of 0 to 4 capsules (50 mg capsules of IMP (white, size 1, hard capsules) or matching placebo) was administered depending on timing of presenting at the hospital. […]

[5] = test system: rat myocardial infarction model; details: rat model without antiplatelet or anticoagulant co-treatment; cited from earlier work

estimated steady state concentration [4]: 1.5 UM
SMILES: CC(C)C[C@H](CO)Nc1nc(S[C@@H](C)c2ccccc2)nc2nc(N)sc12 [KAND567, (2R)-2-[(2-amino-5-{[(1S)-1-phenylethyl]thio}[1,3]thiazolo[4,5-d]pyrimidin-7-yl)amino]-4-methylpentan-1-ol]
intramyocardial haemorrhage (in words) [1]: significant reduction
left ventricular thrombus (in words) [1]: significant reduction
infarct size compared to the placebo group (in words) ([2]; day 90, beyond the benefit of avoiding intramyocardial hemorrhage): further reduction
Infarct size, GAD5-SD(%) ([2]; patients with intramyocardial hemorrhage, T-test vs placebo p = 0.81): 30.8 (11) %
Infarct size, GAD5-SD(%) ([2]; patients without intramyocardial hemorrhage, T-test vs placebo p = 0.15): 17.8 (16) %
safety and tolerability ([3]; intravenous and oral administration in STEMI patients): safe and well-tolerated
incidence of bleeding ([3]; treatment group vs placebo): no increased incidence of bleeding
infarct size [5]: reduce
inflammation [5]: reduce
intramyocardial haemorrhage [5]: reduce
